# What was measured:
# Assay type in all cases: in vivo
# [1] = test system: barnyardgrass (Echinochloa crus-galli); assay: Test A postemergence application, visual injury rating 0-100
# Summary of the method: (§1)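 Compound in a non-phytotoxic, surfactant-containing solvent is applied either as a directed soil spray before seedlings emerge or onto emerged plants 2-10 cm tall; pots hold a loam-sand blend. Plants grow 10 days under greenhouse conditions and are rated by eye against untreated controls (0 no effect, 100 complete control).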
# [2] = test system: blackgrass (Alopecurus myosuroides); assay: as above
# Summary of the method: as §1
# [3] = test system: palmer (palmer amaranth, palmer pigweed, Amaranthus palmeri); assay: as above
# Summary of the method: as §1
# kochia (Bassia scoparia) [4] = assay: as above
# Summary of the method: as §1
# [5] = test system: horseweed (Erigeron canadensis); assay: as above
# Summary of the method: as §1
# corn (Zea mays) [6] = assay: as above
# Summary of the method: as §1
# [7] = test system: galium (catchweed bedstraw, Galium aparine); assay: as above
# Summary of the method: as §1
# [8] = test system: oat, wild (wild oat, Avena fatua); assay: as above
# Summary of the method: as §1
# soybean (Glycine max) [9] = assay: as above
# Summary of the method: as §1
# [10] = test system: green foxtail (Setaria viridis); assay: as above
# Summary of the method: as §1
# [11] = test system: ryegrass, Italian (italian ryegrass, Lolium multiflorum); assay: as above
# Summary of the method: as §1
# [12] = test system: ragweed (common ragweed, Ambrosia artemisiifolia); assay: as above
# Summary of the method: as §1
# [13] = test system: wheat (Triticum aestivum); assay: as above
# Summary of the method: as §1
# [14] = test system: sedge, umbrella (small-flower umbrella sedge, Cyperus difformis); assay: Test B flooded paddy test, visual plant response rating 0-100; conditions: 250 g ai/ha, Flood, applied to paddy water, evaluated after 13 days
# Summary of the method: (§2)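 2-leaf plants; flood 3 cm over soil; compound dosed into paddy water; depth kept constant; greenhouse 13 d; visual scoring vs controls. Dash = no result.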
# [15] = test system: ducksalad (Heteranthera limosa); assay: as above; conditions: 250 g ai/ha, Flood, applied to paddy water, evaluated after 13 days
# Summary of the method: as §2
# [16] = test system: barnyardgrass (Echinochloa crusgalli); assay: as above; conditions: 250 g ai/ha, Flood, applied to paddy water, evaluated after 13 days
# Summary of the method: as §2
# rice (Oryza sativa) = assay: as above; conditions: 250 g ai/ha, Flood, applied to paddy water, evaluated after 13 days
# Summary of the method: as §2
# [17] = test system: barnyardgrass (Echinochloa crus-galli); assay: Test A preemergence soil spray, visual injury rating 0-100; conditions: 10 days
# Summary of the method: as §1
# [18] = test system: blackgrass (Alopecurus myosuroides); assay: as above; conditions: 10 days
# Summary of the method: as §1
# [19] = test system: palmer (palmer amaranth, palmer pigweed, Amaranthus palmeri); assay: as above; conditions: 62 g ai/ha, 10 days, 0 = no effect, 100 = complete control
# Summary of the method: as §1
# kochia (Bassia scoparia) [20] = assay: as above; conditions: 10 days
# Summary of the method: as §1
# corn (Zea mays) [21] = assay: as above; conditions: 16 g ai/ha, 0 to 100 scale, 10 days
# Summary of the method: as §1
# [22] = test system: oat, wild (wild oat, Avena fatua); assay: as above; conditions: 10 days
# Summary of the method: as §1
# soybean (Glycine max) [23] = assay: as above; conditions: 10 days
# Summary of the method: as §1
# [24] = test system: green foxtail (Setaria viridis); assay: as above; conditions: 10 days
# Summary of the method: as §1
# [25] = test system: ryegrass, Italian (italian ryegrass, Lolium multiflorum); assay: as above; conditions: 10 days
# Summary of the method: as §1
# [26] = test system: ragweed (common ragweed, Ambrosia artemisiifolia); assay: as above; conditions: 10 days
# Summary of the method: as §1
# [27] = test system: wheat (Triticum aestivum); assay: as above; conditions: 10 days
# Summary of the method: as §1
# [28] = 62 g ai/ha, postemergence, 10 days, 0 = no effect, 100 = complete control
# [29] = Postemergence, 16 g ai/ha, greenhouse 10 days, 0 no effect, 100 complete control
# [30] = 62 g ai/ha, 0 = no effect, 100 = complete control
smiles,measurement,setting,value
CCOC(=O)C1=CCC(NC(=O)C2(C)CN(c3cc(F)cc(Cl)c3)C(=O)O2)C1 (centres unmarked) [Compound 133],Barnyardgrass plant response rating (0-100),[1]; [28],100
same,Barnyardgrass plant response rating (0 to 100 scale),[1]; [29],100
same,Blackgrass plant response rating (0-100),[2]; [28],90
same,Blackgrass plant response rating (0 to 100 scale),[2]; [29],70
same,"Pigweed, Palmer plant response rating (0-100)",[3]; [28],90
same,"Pigweed, Palmer plant response rating (0 to 100 scale)",[3]; [29],90
same,Kochia plant response rating (0-100),kochia (Bassia scoparia) [4]; [28],90
same,Kochia plant response rating (0 to 100 scale),kochia (Bassia scoparia) [4]; [29],80
same,Horseweed plant response rating (0-100),[5]; [28],80
same,Horseweed plant response rating (0 to 100 scale),[5]; [29],0
same,Corn plant response rating (0-100),corn (Zea mays) [6]; [28],100
same,Corn plant response rating (0 to 100 scale),corn (Zea mays) [6]; [29],100
same,Galium plant response rating (0-100),[7]; [28],70
same,Galium plant response rating (0 to 100 scale),[7]; [29],60
same,"Oat, Wild plant response rating (0-100)",[8]; [28],70
same,"Oat, Wild plant response rating (0 to 100 scale)",[8]; [29],40
same,Soybean plant response rating (0-100),soybean (Glycine max) [9]; [28],70
same,Soybean plant response rating (0 to 100 scale),soybean (Glycine max) [9]; [29],60
same,"Foxtail, Green plant response rating (0-100)",[10]; [28],90
same,"Foxtail, Green plant response rating (0 to 100 scale)",[10]; [29],90
same,"Ryegrass, Italian plant response rating (0-100)",[11]; [28],90
same,"Ryegrass, Italian plant response rating (0 to 100 scale)",[11]; [29],60
same,Ragweed plant response rating (0-100),[12]; [28],70
same,Ragweed plant response rating (0 to 100 scale),[12]; [29],30
same,Wheat plant response rating (0-100),[13]; [28],90
same,Wheat plant response rating (0 to 100 scale),[13]; [29],80
same,"Plant response rating, Sedge, Umbrella (0 to 100 scale, 0 is no effect and 100 is complete control)",[14],98
same,"Plant response rating, Ducksalad (0 to 100 scale, 0 is no effect and 100 is complete control)",[15],85
same,"Plant response rating, Barnyardgrass (0 to 100 scale, 0 is no effect and 100 is complete control)",[16],95
same,"Plant response rating, Rice (0 to 100 scale, 0 is no effect and 100 is complete control)",rice (Oryza sativa),85
same,Barnyardgrass plant response rating,"[17]; 16 g ai/ha, 0 to 100 scale",0
same,Barnyardgrass plant response rating (0-100),[17]; [30],80
same,Blackgrass plant response rating,"[18]; 16 g ai/ha, 0 to 100 scale",0
same,Blackgrass plant response rating (0-100),[18]; [30],20
same,"Pigweed, Palmer plant response rating (0-100)",[19],90
same,Kochia plant response rating,"kochia (Bassia scoparia) [20]; 16 g ai/ha, 0 to 100 scale",0
same,Kochia plant response rating (0-100),kochia (Bassia scoparia) [20]; [30],20
same,Corn plant response rating,corn (Zea mays) [21],0
same,"Oat, Wild plant response rating","[22]; 16 g ai/ha, 0 to 100 scale",0
same,"Oat, Wild plant response rating (0-100)",[22]; [30],0
same,Soybean plant response rating,"soybean (Glycine max) [23]; 16 g ai/ha, 0 to 100 scale",0
same,Soybean plant response rating (0-100),soybean (Glycine max) [23]; [30],0
same,"Foxtail, Green plant response rating","[24]; 16 g ai/ha, 0 to 100 scale",0
same,"Foxtail, Green plant response rating (0-100)",[24]; [30],90
same,"Ryegrass, Italian plant response rating","[25]; 16 g ai/ha, 0 to 100 scale",10
same,"Ryegrass, Italian plant response rating (0-100)",[25]; [30],80
same,Ragweed plant response rating,"[26]; 16 g ai/ha, 0 to 100 scale",0
same,Ragweed plant response rating (0-100),[26]; [30],0
same,Wheat plant response rating,"[27]; 16 g ai/ha, 0 to 100 scale",0
same,Wheat plant response rating (0-100),[27]; [30],90
